This note sets out measurements from patent publication US6451816B1, “Use of pyridyl alkane, pyridyl alkene and/or pyridyl alkine acid amides in the treatment of tumors or for immunosuppression” (Klinge Pharma GmbH, priority 1997, dated 2002).

Where a name gives a salt, the structure may show the parent alone.

`Cl.Cl.O=C(C=Cc1cccnc1)NCCCCC1CCNCC1`: the melting point fell in the range of 178 to 188 °C.
Compound `O=C(C=Cc1cccnc1)NCCCCC1CCN(C(c2ccccc2)c2ccccc2)CC1` (as salt: methanesulfonate) [Substance 104, N-[4-(1-Diphenylmethylpiperidin-4-yl)-butyl]-3-(pyridin-3-yl)-acrylamide] gave a melting point of 156 °C.
Then `O=C(C=Cc1cccnc1)NCC1CN(C(c2ccccc2)c2ccccc2)C1` [Substance 2, N-(1-Diphenylmethylazetidin-3-ylmethyl)-3-(pyridin-3-yl)-acrylamide], with 72 to 74 °C; and `O=C(C=Cc1cccnc1)NCCCCC1CCN(Cc2ccccc2)CC1` [Substance 46, N-[4-(1-Benzylpiperidin-4-yl)-butyl]-3-(pyridin-3-yl)-acrylamide], with 88 to 90 °C.
In turn, `O=C(C=Cc1cccnc1)NCCCOC1CCN(Cc2ccccc2)CC1` [Substance 55, N-[3-(1-Benzylpiperidine-4-yloxy)-propyl]-3-(pyridin-3-yl)-acrylamide] registered a melting point of 100 to 102 °C.
Then `O=C(C=Cc1cccnc1)NCCC1CCN(C(c2ccccc2)c2ccccc2)CC1` [Substance 95, N-[2-(1-Diphenylmethylpiperidin-4-yl)-ethyl]-3-(pyridin-3-yl)-acrylamide], with 141 to 143 °C; and `O=C(CCc1cccnc1)NCCCC1CCN(C(c2ccccc2)c2ccccc2)CC1` [Substance 96, N-[3-(1-Diphenylmethylpiperidin-4-yl)-propyl]-3-(pyridin-3-yl)-propionamide], with 109 to 110 °C.
With `CCN(CCCCC1CCN(C(c2ccccc2)c2ccccc2)CC1)C(=O)/C=C/c1cccnc1` [Substance 123, N-[4-(1-Diphenylmethylpiperidin-4-yl)-butyl]-N-ethyl-3-(pyridin-3-yl)-acrylamide], the melting point was 115 to 117 °C.
`O=C(COc1cccnc1)NCCCCC1CCN(C(c2ccccc2)c2ccccc2)CC1` [Substance 129, N-[4-(1-Diphenylmethylpiperidin-4-yl)-butyl]-2-(pyridin-3-yloxy)-acetamide] came in with a melting point of 103 to 105 °C.
The figure for `O=C(C=CC=Cc1cccnc1)NCCCCC1CCN(C(c2ccccc2)c2ccccc2)CC1` [Substance 132, N-[4-(1-Diphenylmethylpiperidine-4-yl)-butyl]-5-(pyridin-3-yl)-2,4-pentadienoic Acid Amide] is 164 to 166 °C.
In turn, `O=C(CCc1cccnc1)NCCCCCC1CCN(C(c2ccccc2)c2ccccc2)CC1` [Substance 142, N-[5-(1-Diphenylmethylpiperidin-4-yl)-pentyl]-3-(pyridin-3-yl)-propionamide] returned a melting point of 112 to 114 °C.
The figure for `O=C(C=Cc1cccnc1)NCCCCC1CCN(C(c2ccc(F)cc2)c2ccc(F)cc2)CC1` [Substance 171, N-(4-{1-[bis-(4-Fluorophenyl)-methyl]-piperidin-4-yl}-butyl)-3-(pyridin-3-yl)-acrylamide] is 108 °C.
Then `O=C(CCc1cccnc1)NCCCCC1CCN(C2c3ccccc3COc3ccccc32)CC1` (stereo not drawn) [Substance 230, N-{4-[1-(6,11-Dihydrodibenzo[b,e]-oxepin-11-yl)-piperidine-4-yl]-butyl}-3-(pyridin-3-yl)-propionamide], with 110 to 112 °C.
Then `O=C(C=Cc1cccnc1)NCCCCC1CCN(C(=O)c2cccc3c2-c2ccccc2C3=O)CC1` [Substance 277, N-{4-[1-(9-oxo-9H-Fluorene-4-carbonyl)-piperidine-4-yl]-butyl}-3-(pyridin-3-yl)-acrylamide], with 80 to 82 °C; and `O=C(CCc1cccnc1)NCCCCC1CCN(S(=O)(=O)c2ccc3ccccc3c2)CC1` [Substance 337, N-{4-[1-(2-Naphthylsulfonyl)-piperidin-4-yl]-butyl}-3-(pyridin-3-yl)-propionamide], with 103 to 105 °C.

The term melting point denotes the temperature, or range, at which the solid turns liquid.
